Results reported in patent US20250059208A1, “KRAS MODULATING COMPOUNDS” (priority 2023, published 2025).
Read-outs that look alike come from different tables or passages of the source.

Legend:
GDP-loaded KRAS-G12D = GDP-loaded KRAS-G12D (Homo sapiens, UniProt P01116, G12D); test: KRAS (GDP) biochemical TR-FRET probe displacement assay, G12D; format: binding; conditions: 2 hours at room temperature
Protocol: (§1) • Compounds were tested for binding to GDP-loaded wild-type KRAS (WT), KRAS-G12C, KRAS-G12D, and KRAS-G12V in a 384-well assay format using a TR-FRET probe displacement assay in buffer consisting of 50 mM Hepes (pH 7.4), 150 mM NaCl. 5 mM MgCl2 and 0.005% Tween-20. 0.03 nM KRAS was used in this assay with 0.02 nM Eu-streptavidin and 12 nM Cy-5 labelled probe. Compounds were serially diluted (1:3) in DMSO. The LabCyte ECHO Acoustic dispenser was used to pre-spot the assay plates (384-well Non-Binding Surface plates, Corning, Catalog #3824) with 50 nL of compound. 5 μL of 2× enzyme concentration was added to the pre-spotted plates and incubated for 30 minutes before adding 5 μL of 2× concentration of Eu-streptavidin and Cy-5 labelled probe (10 μL final reaction volume). The plates were incubated at room temperature for 2 hours before measuring TR-FRET ratio (665 nm/615 nm) on the Envision multimode plate reader. The ratios were normalized to a positive (saturating concentration of known inhibitor) and negative (DMSO) control and plotted against the log of compound concentration. […]

[1] = system: cellular pERK in Kuramochi (WT KRAS) cell-line; test: Cell based pERK assay, Kuramochi; conditions: Kuramochi (WT KRAS) cells, 2 hours compound incubation, HTRF Phospho-ERK1/2
Protocol: (§2) Compounds were tested in a 384-well assay format for their ability to inhibit cellular pERK in Kuramochi (WT KRAS), MIA-PaCa-2 (KRAS-G12C), ASPC-1 (KRAS G12D), and NCI-H441 (KRAS-G12V) cell-lines. Compounds were serially diluted (1:3) in DMSO. On day −1, 80 μL of cells were plated per well in the 384 well tissue-culture plates (Greiner: Cat #781080) to seed 5000 cells per wells of AsPC-1 or 7500 cells of MIA-PaCa-2, NCI-H441, and Kuramochi cell lines in RPMI (Corning: Cat #10-040-CM) with 10% fetal bovine serum (FBS) (HyClone: Cat #SH30071-03) and IX penicillin-streptomycin-glutamate (PSG) (Corning: Cat #30-009-C1) for […] and Kuramochi cell lines and DMEM (Corning: Cat #15-018-CM) with 10% FBS and 1×PSG for MIA-PaCa-2 cell line. The plates were then incubated overnight at 37° C. and 5% CO2. On day 0, 400 nL of compound/well was added into the cell plates and mixed 5 times by pipetting using a Beckmann Biomek FX. The cell plates were then incubated for 2 hours at 37° C. and 5% CO2. HTRF Advanced Phospho-ERK1/2 (THR202/TYR204) Detection Kits (PerkinElmer: Cat #64AERPEG) were used to prepare the lysis and detection solution according to manufacturer protocol. Following the 2 hour incubation, 70 μL of medium was aspirated from the plates and 10 μL of lysis and detection solution was added to the plates using a Biotek EL406 washer and dispenser. Plates were sealed and stored overnight at room temperature. HTRF ratio (665 nm/615 nm) was read by Envision multimode reader (PerkinElmer) the next day. The TR-FRET ratios were normalized to a positive (saturating concentration of known inhibitor) and negative (DMSO) control and plotted against the log of compound concentration.

GDP-loaded KRAS-G12C = GDP-loaded KRAS-G12C (Homo sapiens, UniProt P01116, G12C); test: KRAS (GDP) biochemical TR-FRET probe displacement assay, G12C; format: binding; conditions: 2 hours at room temperature
Protocol: as §1

GDP-loaded KRAS-G12V = GDP-loaded KRAS-G12V (Homo sapiens, UniProt P01116, G12V); test: KRAS (GDP) biochemical TR-FRET probe displacement assay, G12V; format: binding; conditions: 2 hours at room temperature
Protocol: as §1

[2] = biological target: GDP-loaded wild-type KRAS (WT) (Homo sapiens, UniProt P01116); test: KRAS (GDP) biochemical TR-FRET probe displacement assay, WT; format: binding; conditions: 2 hours at room temperature
Protocol: as §1

[3] = system: cellular pERK in ASPC-1 (KRAS G12D) cell-line; test: Cell based pERK assay, ASPC-1; conditions: ASPC-1 (KRAS G12D) cells, 2 hours compound incubation, HTRF Phospho-ERK1/2
Protocol: as §2

[4] = system: cellular pERK in MIA-PaCa-2 (KRAS-G12C) cell-line; test: Cell based pERK assay, MIA-PaCa-2; conditions: Homo sapiens; MIA-PaCa-2 (KRAS-G12C) cells, 2 hours compound incubation, HTRF Phospho-ERK1/2; read-out: MIAPaCa2 pERK EC50
Protocol: as §2

[5] = system: cellular pERK in NCI-H441 (KRAS-G12V) cell-line; test: Cell based pERK assay, NCI-H441; conditions: Homo sapiens; NCI-H441 (KRAS-G12V) cells, 2 hours compound incubation, HTRF Phospho-ERK1/2
Protocol: as §2

GDP-loaded KRAS-G12V, sequence (P01116 1-188 isoform P01116-2 G12V): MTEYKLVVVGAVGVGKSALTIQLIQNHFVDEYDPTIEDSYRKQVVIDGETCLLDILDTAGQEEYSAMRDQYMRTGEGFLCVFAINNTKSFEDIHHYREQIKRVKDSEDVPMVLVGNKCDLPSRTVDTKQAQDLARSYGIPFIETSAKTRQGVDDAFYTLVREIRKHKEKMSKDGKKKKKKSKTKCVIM
GDP-loaded KRAS-G12C, sequence (P01116 1-188 isoform P01116-2 G12C): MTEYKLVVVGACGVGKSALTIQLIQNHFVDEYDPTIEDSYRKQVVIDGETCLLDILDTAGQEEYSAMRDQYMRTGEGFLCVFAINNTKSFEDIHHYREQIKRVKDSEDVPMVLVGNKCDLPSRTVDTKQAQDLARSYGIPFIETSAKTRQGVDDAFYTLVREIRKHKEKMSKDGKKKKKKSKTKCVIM
GDP-loaded wild-type KRAS (WT), sequence (P01116 1-188 isoform P01116-2): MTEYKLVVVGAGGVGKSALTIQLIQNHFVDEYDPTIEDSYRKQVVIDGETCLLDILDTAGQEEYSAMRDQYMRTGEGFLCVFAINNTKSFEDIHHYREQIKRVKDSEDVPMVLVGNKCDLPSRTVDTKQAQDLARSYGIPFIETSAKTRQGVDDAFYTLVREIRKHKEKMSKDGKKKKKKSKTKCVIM
GDP-loaded KRAS-G12D, sequence (P01116 1-188 isoform P01116-2 G12D): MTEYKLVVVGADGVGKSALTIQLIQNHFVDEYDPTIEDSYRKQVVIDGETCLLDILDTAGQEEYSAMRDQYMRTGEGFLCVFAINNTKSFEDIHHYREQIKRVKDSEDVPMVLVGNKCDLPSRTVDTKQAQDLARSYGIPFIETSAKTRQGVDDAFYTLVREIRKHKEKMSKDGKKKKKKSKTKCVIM

Structure (SMILES) | IC50 (GDP-loaded KRAS-G12D) [nM] | EC50 [1] [nM] | IC50 (GDP-loaded KRAS-G12C) [nM] | IC50 (GDP-loaded KRAS-G12V) [nM] | IC50 [2] [nM] | EC50 ([3]; read-out: AsPC1 pERK EC50) [nM] | EC50 [4] [nM] | EC50 [5] [nM] | EC50 ([1]; 2 h) [nM] | EC50 ([3]; Homo sapiens, ASPC1, 2 h) [nM]
N#Cc1c(N)sc2c(F)ccc(-c3c(Cl)cc4c(N5CC6(F)CCC(F)(C5)N6)nc(OC[C@@]56CCCN5C[C@H](F)C6)nc4c3F)c12 (single isomer, unassigned) [Example 8-1] | 1.46 | 2.57 | 1.03 | 1 | 0.13 | 25.3 | – | – | – | –
N#Cc1c(N)sc2c(F)ccc(-c3c(Cl)cc4c(N5CC6(F)CCC(F)(C5)N6)nc(OC[C@@]56CCCN5C[C@H](F)C6)nc4c3F)c12 (single isomer, unassigned) [Example 8-2] | 43 | 79.8 | 23.3 | 50.1 | 3.31 | 614 | 65.4 | 256 | – | –
C#Cc1c(F)ccc2cc(O)cc(-c3c(F)cc4c(N5CC6(F)CCC(F)(C5)N6)nc(OC[C@@]56CCCN5C[C@H](F)C6)nc4c3F)c12 (single isomer, unassigned) [Example 9-1] | 0.32 | 4.25 | 0.17 | 0.19 | 0.18 | 6.2 | – | – | – | –
C#Cc1c(F)ccc2cc(O)cc(-c3c(F)cc4c(N5CC6(F)CCC(F)(C5)N6)nc(OC[C@@]56CCCN5C[C@H](F)C6)nc4c3F)c12 (single isomer, unassigned) [Example 9-2] | 97.8 | > 1000 | – | 72.6 | 66.3 | > 1000 | – | – | – | –
C#Cc1c(F)ccc2cc(O)cc(-c3ncc4c(N5C[C@]6(F)CC[C@](F)(C5)N6)nc(OC[C@@]56CCCN5C[C@H](F)C6)nc4c3F)c12 [Example 1-1, 4-(4-((1R,5S)-1,5-difluoro-3,8-diazabicyclo[3.2.1]octan-3-yl)-8-fluoro-2-(((2R,7aS)-2-fluorotetrahydro-1H-pyrrolizin-7a(5H)-yl)methoxy)pyrido[4,3-d]pyrimidin-7-yl)-5-ethynyl-6-fluoronaphthalen-2-ol] | 0.14 | – | 0.1 | 0.11 | 0.08 | – | 0.16 | 0.83 | 1.19 | 4.11
C#Cc1c(F)ccc2cccc(-c3ncc4c(N5CC6(F)CCC(F)(C5)N6)nc(OC[C@@]56CCCN5C[C@H](F)C6)nc4c3F)c12 [Example 1-2] | ≥ 100 | – | 38 | 84 | 26.6 | – | 32.2 | 66 | 11.9 | 194
C#Cc1c(F)ccc2cc(O)cc(-c3ncc4c(N5C[C@]6(F)CC[C@](F)(C5)N6)nc(OCC56CCCN5CCC6)nc4c3F)c12 [Example 2-1, 4-(4-((1R,5S)-1,5-difluoro-3,8-diazabicyclo[3.2.1]octan-3-yl)-8-fluoro-2-((tetrahydro-1H-pyrrolizin-7a(5H)-yl)methoxy)pyrido[4,3-d]pyrimidin-7-yl)-5-ethynyl-6-fluoronaphthalen-2-ol] | – | – | – | – | – | – | 6.9 | 17.9 | 11.5 | 71.1
C#Cc1c(F)ccc2cc(O)cc(-c3ncc4c(N5CC6(F)CCC(F)(C5)N6)nc(OC[C@@]56CCCN5[C@H](COc5cc(C(F)(F)F)ncn5)CC6)nc4c3F)c12 [Example 2-3] | 0.55 | – | 0.4 | 0.42 | 0.29 | – | 0.19 | 2.07 | 2.55 | 2.15
